Legend:
Format in all cases: in vivo
[1] = test system: insulin signaling cascade (PDK-1, Akt, GSK-3β); test: Western blot of insulin signaling cascade in hippocampi of 6-month-old MSG mice after 14-day treatment; details: 14 days SC twice a day, liraglutide 0.2 mg/kg, vs saline
Description: (§1) Groups of MSG mice (n=10 animals per group) were for 14 days SC administered with liraglutide at a dose 0.2 mg/kg, or palmitoylated analog of PrRP31 at a dose 5 mg/kg, or palmitoylated analog with PrRP31 with dichlorophenylalanin in position 31 at a dose 5 mg/kg dissolved in saline, twice a day, at 8 a.m. and 6:00 p.m. Control mice (n=10 animals per group), NMRI and MSG, were injected in the same manner with saline (the volume was always 0.2 ml/mouse).
(§2) Overnight (15 hours) fasted mice with ad libitum access to water were weighed, and their plasma glucose concentration was measured using Glucocard glucometer. After decapitation, the brains were dissected on ice, and cut between hemispheres. For immunohistochemical staining the half of the brain was fixed for 24 hours in 4% paraformaldehyde and dehydrated in 70% ethanol, afterward. For the western blot (WB) analysis, the hippocampus was dissected from the second half of the brain, and lysed in cold lysis buffer (62.5 mmol·l^−1 Tris-HCl, pH 6.8 with 1% sodium deoxycholate, 1% Triton X-100 Complete, 50 mmol·l^−1 NaF, 1 mmol·l^−1 Na3VO4), homogenized, sonicated 10 minutes and stored at −20° C. The blood plasma was prepared, and stored at −20° C.
(§3) In homogenized hippocampi the protein level was measured using BCA kit (Pierce, Thermo Fisher Scientific, Rockfor, Ill., USA), then the samples were diluted in sample buffer (62.5 mmol/l Tris-HCl pH 6.8, 10% glycerol, 2% SDS, 0.01% bromfenol blue, 5% merkaptoethanol, 50 mmol/l NaF and 1 mmol/l Na3VO4) to final concentration […]. WB method and analysis of the results were performed according Nagelová et al. (Nagelova et al., 2014).

Tau protein [2] = test: Western blot of Tau phosphorylation in hippocampi of 6-month-old MSG mice after 14-day treatment; details: 14 days SC twice a day, liraglutide 0.2 mg/kg, vs saline
Description: as §1, §2, §3

Tau protein [3] = test: Immunohistochemical fluorescent double staining of Tau phosphorylation in CA1 region of hippocampi of MSG mice; details: 6-month-old MSG mice, 14 days SC twice a day; liraglutide 0.2 mg/kg, PrRP31 analog 5 mg/kg; epitopes Thr212 and Ser202/Thr205
Description: as §1, §2
To verify the results obtained from WB analysis the immunohistochemical staining was performed. Ten micrometer (10 μm) thick sections were prepared at INSERM, Lille, France. […]

(N-palm)SRTHRHSMEIRTPDINPAWYASRGIRPVGRF-NH2 [palmitoylated analog of PrRP31]
phosphorylation of Akt (Thr308) ([1]; PrRP31 analog 5 mg/kg): more pronounced phosphorylation
activation of kinases implicated in insulin signaling cascade ([1]; PrRP31 analogs 5 mg/kg): Enhanced activation
phosphorylation of GSK-3β (Ser9) ([1]; PrRP31 analogs 5 mg/kg): more pronounced phosphorylation
not-phosphorylated Tau (antibody Tau1) (Tau protein [2]; PrRP31 analog 5 mg/kg): did not show any significant differences among groups
phosphorylation of Tau protein at epitope Ser396 (Tau protein [2]; PrRP31 analogs 5 mg/kg): decreased phosphorylation
phosphorylation of Tau protein at epitope Thr212 (Tau protein [2]; PrRP31 analogs 5 mg/kg): decreased phosphorylation
phosphorylation of Tau protein at epitope Thr231 (Tau protein [2]; PrRP31 analogs 5 mg/kg): decreased phosphorylation
Tau phosphorylation in hippocampal region CA1 (fluorescent signal) (Tau protein [3]): decreased
